Tested on: PSNL rats
Experiment: Motor nerve conduction velocity, comparison of Test composition vs alcoholic extract of fenugreek vs Pinitol stand-alone in PSNL rat model
Format: in vivo
Description: To compare efficacy of test Composition with Alcoholic Extract of Fenugreek (30 mg/kg p.o) and Pinitol stand-alone (30 mg/kg) in neuropathy, PSNL rat model is used. The sciatic nerve of the rats is exposed and they received injury by a process where a 4-0 silk suture are inserted into the nerve with ⅜ curve, with a reverse-cutting mini needle and is tightly ligated so that the dorsal ⅓-½ of the nerve thickness are trapped in the ligature. They received only vehicle (Distilled water). Male wistar rats weighing 200-220 g average are used for the study. 500 g of fenugreek seeds is extracted by using alcoholic extraction procedure. This extract is obtained in a dry form by using vacuum evaporation technique. […] When compared with sham operated rats there is significant decrease in nerve conduction velocity in PSNL control rats. […] The data was analysed by one way ANOVA followed by Bonferroni's Multiple Comparison Test, wherein: […]

## CO[C@H]1[C@H](O)[C@@H](O)[C@@H](O)[C@H](O)[C@@H]1O [Pinitol stand-alone, 3-O-methyl-1,2,4 cis-3,5,6 transhexahydroxycyclohexanol]
30 mg/kg p.o., day 28
  nerve conduction velocity when compared with PSNL control rats: marginal effect
PSNL rats, 30 mg/kg p.o. chronic administration, Day 28 (after treatment)
  Motor Nerve Conduction Velocity (m/s): 13.97 m/s
